Where two headings read alike, the source gives them in different places. Marks after values point to notes of the source that are not given here.
Experiments:
[1] = tested on: bloodstream form T. brucei (strain 221); assay: Trypanocidal activity against cultured bloodstream form T. brucei (resazurin); details: for IC50: mean of triplicate ± SEM; for IC90: pH 7.4, read-out: T. brucei IC90
Method: T. brucei in the logarithmic phase of growth were diluted back to 2.5 × 10^4 mL^−1 and aliquoted into 96-well plates. The compounds were then added at a range of concentrations and the plates incubated at 37 °C. Each drug concentration was tested in triplicate. Resazurin was added after 48 h and the plates incubated for a further 16 h and the plates then read in a Spectramax plate reader. Results were analysed using GraphPad Prism.

[2] = in vitro; details: rat
Method: (§1) Cytotoxicity against mammalian cells was assessed using microtitre plates following a described procedure [58]. Briefly, rat skeletal muscle L6 cells were seeded at 1 × 10^4 mL^−1 in 200 μL of growth medium containing different compound concentrations. The plates were incubated for 6 days at 37 °C and 20 μL resazurin was then added to each well. After a further 8 h incubation, the fluorescence was determined using a Spectramax plate reader.

[3] = target: T1, Electrophorus electricus AChE (EeAChE) (Electrophorus electricus, UniProt O42275); parameters: method as in PMID 24389509; details: same experimental conditions; ref [40]; cited from earlier work
[4] = tested on: rat skeletal myoblast L6 cells; assay: cells; details: L6, read-out: L6 cells IC50
Method: as §1

[5] = tested on: human recombinant AChE (hAChE); parameters: method as in PMID 24389509; details: ref [40]; cited from earlier work
[6] = tested on: rat skeletal myoblast L6 cells
Method: as §1

[7] = target: L. infantum strain MCAN/ES/92/BCN722 promastigote forms; assay: Activity against promastigotes of L. infantum (acid phosphatase); type: cell-based, Leishmania infantum; details: promastigote form, mean ± SD of duplicate experiments performed at least twice
[8] = commercial drugs for PAMPA-BBB validation; ref [2]; cited from earlier work
[9] = target: T1, Electrophorus electricus AChE (EeAChE); assay: biochemical; type: biochemical; details: for IC50: mean ± SEM
[10] = for Pe: PAMPA-BBB, PBS:EtOH 70:30, mean ± SD of three independent experiments; for Pe (prediction) of BBB permeation: class from PAMPA-BBB Pe
Method: (§2) Thus, the brain passive permeability of the novel compounds was evaluated in vitro through the widely used PAMPA-BBB method [[50]

[11] = tested on: T. cruzi strain MHOM/ES/2203/BCN590 (Tcl) epimastigote forms; assay: Activity against epimastigotes of T. cruzi (cell counting); details: mean ± SD of duplicate experiments performed at least twice
[12] = in vitro; details: pig, PAMPA
Method: as §2

[13] = tested on: bloodstream form T. brucei (strain 221); details: read-out: T. brucei IC50; nifurtimox reference value; ref [49]; cited from earlier work
[14] = Trypanosoma brucei, pH 7.4, read-out: T. brucei IC50, bloodstream form, pH 7.4
[15] = rat skeletal muscle L6 cells, SITb: selectivity index as the ratio of cytotoxic to anti-T. brucei IC50 values, L6 IC50 / T. brucei IC50
[16] = rat skeletal muscle L6 cells, SILi: selectivity index as the ratio of cytotoxic to anti-L. infantum IC50 values, L6 IC50 / L. infantum IC50
[17] = rat skeletal muscle L6 cells, SITc: selectivity index as the ratio of cytotoxic to anti-T. cruzi IC50 values, L6 IC50 / T. cruzi IC50
[18] = Trypanosoma cruzi, read-out: T. cruzi IC50, epimastigote form
[19] = read-out: T. cruzi IC50, epimastigote form

T1 sequence (O42275 24-633): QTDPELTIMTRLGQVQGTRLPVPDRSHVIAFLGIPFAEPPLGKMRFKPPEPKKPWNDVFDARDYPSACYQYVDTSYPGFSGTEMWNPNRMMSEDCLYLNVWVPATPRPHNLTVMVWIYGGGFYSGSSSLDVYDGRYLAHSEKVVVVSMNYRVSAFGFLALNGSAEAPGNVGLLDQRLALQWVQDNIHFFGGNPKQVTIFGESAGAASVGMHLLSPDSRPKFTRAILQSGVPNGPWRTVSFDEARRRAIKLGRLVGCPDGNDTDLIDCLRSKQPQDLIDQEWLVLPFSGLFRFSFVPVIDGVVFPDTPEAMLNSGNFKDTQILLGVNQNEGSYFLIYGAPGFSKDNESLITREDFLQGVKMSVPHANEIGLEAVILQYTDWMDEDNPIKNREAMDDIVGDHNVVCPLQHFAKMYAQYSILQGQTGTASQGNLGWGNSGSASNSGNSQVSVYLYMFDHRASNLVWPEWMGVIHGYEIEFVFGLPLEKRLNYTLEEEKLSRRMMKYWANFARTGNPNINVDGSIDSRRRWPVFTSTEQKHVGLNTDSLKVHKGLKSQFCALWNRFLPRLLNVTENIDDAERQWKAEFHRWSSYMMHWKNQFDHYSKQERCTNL

Structure (SMILES) | IC50 [1, 14] | IC90 ([1]; Trypanosoma brucei) | selectivity ratio at 6 days [2, 15] | IC50 [4] | IC50 [9] | selectivity ratio at 6 days [2, 16] | selectivity ratio at 6 days [2, 17] | IC50 ([7]; Leishmania infantum) | Pe [10] | Pe (prediction) of BBB permeation [10] | IC50 [11, 18] | further results
CCNCc1ccc2nc(-c3ccc(Cl)cc3)c3c(c2c1)N(Cc1ccccc1)CCC3 [Compound 1] | 3.33 ± 0.18 µM | 4.39 ± 0.04 µM | 2.1 | 7.08 ± 0.11 µM | – | – | – | – | – | – | – | IC50 [3]: 0.15 ± 0.01 µM; IC50 [5]: 0.94 µM
O.O.O.O=C([O-])C(O)C(O)C(=O)[O-].O=C([O-])C(O)C(O)C(=O)[O-].[K+].[K+].[Sb].[Sb] (stereo not shown) [Sb (III), Potassium antimony (III) tartrate hydrate, reference compound] | – | – | – | – | – | – | – | – | – | – | – | SILi: selectivity index as the ratio of cytotoxic to anti-L. infantum IC50 values [6]: 0.1 ^g; IC50 [7]: 24.3 ± 1.7 µM
CN(C)CCCN1c2ccccc2Sc2ccccc21 [Promazine] | – | – | – | – | – | – | – | – | – | – | – | Pe, literature value [8]: 8.8 10–6 cm s–1
NCc1ccc(-c2nc3ccc(Cl)cc3c3c2CCCO3)cc1 [Compound 39, 4-{9-Chloro-3,4-dihydro-2H-pyrano[3,2-c]quinolin-5-yl}benzylamine] | 1.5 µM | 1.77 ± 0.02 µM | 4.8 | 7 ± 0.19 µM | > 30 µM | 1.1 | 0.2 | 6.1 ± 0.2 µM | 15.5 ± 1.8 10^−6 cm s^−1 | CNS+ (compounds of high BBB permeation (CNS+): Pe (10^−6 cm s^−1) > 5.25) | ~30 µM | inhibition at 30 µM ([9]; 30 μM, the IC50 could not be determined): 45%; IC50 ([1]; read-out: T. brucei IC50, bloodstream form, pH 7.4): 1.46 ± 0.02 µM; IC50 [11, 19]: 29.2 ± 3.7 µM
CCn1cc(C(=O)O)c(=O)c2cc(F)c(N3CCNCC3)cc21 [Norfloxacin] | – | – | – | – | – | – | – | – | – | – | – | Papp [12]: 0.9 ± 0.02 ×10⁻⁶ cm/s
CN1C(C(=O)Nc2ccccn2)=C(O)c2ccccc2S1(=O)=O [Piroxicam] | – | – | – | – | – | – | – | – | – | – | – | Pe, literature value [8]: 2.5 10–6 cm s–1
CC1CS(=O)(=O)CCN1/N=C/c1ccc([N+](=O)[O-])o1 (stereo not shown) [nifurtimox, reference compound] | – | – | – | 32 ± 1.1 µM | – | – | – | – | – | – | – | IC50 [13]: 4.4 ± 0.7 µM; selectivity ratio at 6 days ([2]; SITb: selectivity index as the ratio of cytotoxic to anti-T. brucei IC50 values): 7.3
NCc1ccc(-c2nc3ccc(Cl)cc3c3c2CCCN3Cc2ccccc2)cc1 [Compound 3, 4-{1-Benzyl-9-chloro-1,2,3,4-tetrahydrobenzo[h][1,6]naphthyridin-5-yl}benzylamine] | 1 ± 0.03 µM | 1.19 ± 0.02 µM | 6.8 | 6.78 ± 1.26 µM | 3.67 ± 0.55 µM | 0.2 | 0.7 | ~30 µM | 7.4 ± 0.2 10^−6 cm s^−1 | CNS+ (compounds of high BBB permeation (CNS+): Pe (10^−6 cm s^−1) > 5.25) | 9.47 µM | IC50 [7]: 31.1 ± 2.9 µM; IC50 [11, 19]: 9.5 ± 2.5 µM
N#Cc1ccc(-c2nc3ccc(Cl)cc3c3c2CCCO3)cc1 [Compound 38, 4-{9-Chloro-3,4-dihydro-2H-pyrano[3,2-c]quinolin-5-yl}benzonitrile] | 9.61 ± 0.27 µM | 13.7 ± 1 µM | 3.8 | 36.3 ± 8.1 µM | 2.7 ± 0.45 µM | 1.5 | 0.2 | 23.5 ± 2.4 µM | 29.7 ± 3.8 10^−6 cm s^−1 | CNS+ (compounds of high BBB permeation (CNS+): Pe (10^−6 cm s^−1) > 5.25) | 178 ± 92 µM | –

— publication PMC4638191, “Multicomponent reaction-based synthesis and biological evaluation of tricyclic heterofused quinolines with multi-trypanosomatid activity” (European Journal of Medicinal Chemistry, 2015)
